Measurements: PubChem BioAssay (NCI)
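Where inhibition never reached the appropriate level, the endpoint shown equals the highest concentration tested. Otherwise, values were interpolated linearly from a five-concentration, 48-hour dose response in 96-well plates. GI50 = concentration required for 50% inhibition of growth. The concentration for full growth arrest is given as TGI.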

What was measured:
Test in all cases: NCI tumour cell line growth inhibition, 48 h
[1] = system: BT-549 breast
[2] = system: DU-145 prostate
[3] = system: HS 578T breast
[4] = system: MDA-MB-435
[5] = system: NCI/ADR-RES ovarian
[6] = system: T-47D breast

| SMILES | GI50 [1] [µM] | TGI [1] [µM] | GI50 [2] [µM] | TGI [2] [µM] | GI50 [3] [µM] | TGI [3] [µM] | GI50 [4] [µM] | TGI [4] [µM] | GI50 [5] [µM] | TGI [5] [µM] | GI50 [6] [µM] | TGI [6] [µM] |
| --- | --- | --- | --- | --- | --- | --- | --- | --- | --- | --- | --- | --- |
| CCn1cnc2c(Nc3cccc(Cl)c3)nc(N[C@@H]3CCCC[C@@H]3N)nc21 | 1.73 | 3.73 | 1.01 | 3.15 | 2.36 | 7.99 | 1.42 | 2.82 | 2.04 | 6.71 | 1.98 | 5.16 |
| COC1=CC(c2ccc[nH]2)=N/C1=C\c1[nH]c(C)c(C(=O)CCCCC(=O)Nc2ccccc2)c1C | 1.77 | 13.4 | 1.2 | 2.5 |  |  | 1.79 | 3.74 | 1.89 | 3.69 | 1.99 | 6.14 |
| CCCc1nc2c(C)cc(-c3nc4ccccc4n3C)cc2n1Cc1ccc(-c2ccccc2C(=O)O)cc1 | 52.3 | > 100 | 44 | > 100 | 38.1 | > 100 | 33.9 | > 100 | 41.9 | > 100 | 48.5 | > 100 |
| CCOC(=O)c1sc(=S)c2c(C(=O)OCC)c(C(=O)OCC)sc2c1C(=O)OCC | 21.5 | 45.4 | 17.4 | 39 | 17.7 | 47.3 | 27.4 | 67.2 | 17.3 | 35.9 | 23.7 | 95.5 |
| COc1ccc(/C(C)=N/OC(=O)c2c(-c3ccccc3Cl)noc2C)cc1CN1CCOCC1 |  | 54.9 |  | > 100 |  | > 100 |  | 57.3 |  | > 100 |  | 71 |
| COC(=O)CCC/C=C\C[C@H]1C=CC(=O)/C1=C/C[C@@H](O)C/C=C\CC(F)(F)F | 2.12 | 5.37 | 3.89 | 14.7 | 8.98 | 70.3 | 2.05 | 10.6 | 2.32 | 8.33 | 3.06 | 16.3 |
| CCOC(=O)c1sc(Nc2ccc(Cl)cc2)nc1C | 1.48 | 3.29 | 2.47 | 9.04 | 2.22 | 6.2 | 2.12 | 4.75 | 1.78 | 4.08 |  |  |
| COc1ccc2c(c1)CC[C@@H]1[C@@H]2CC[C@]2(C)C(c3ccco3)=C(C=O)C[C@@H]12 | 17.7 | 43.3 | 7.82 | 27 | 23.2 | 60 | 2.21 | 5.88 | 11.5 | 64.6 | 18.8 | 92.3 |
| CSc1nc2sc3cc(Cl)ccc3n2c(=N)c1C#N | 25.4 | > 100 | > 68.7 | > 100 | 2.89 | > 24.9 | > 100 | > 100 | > 42.2 | > 100 | 23.7 | > 100 |
| COc1ccc(-c2ccc(C3CC(c4ccc(Cl)cc4)=NN3)o2)c([N+](=O)[O-])c1 (configuration not stated) | > 100 | > 100 | > 100 | > 100 | > 100 | > 100 | > 100 | > 100 | > 100 | > 100 | > 100 | > 100 |
| NS(=O)(=O)c1ccc(CCN=C=S)cc1 | 2.03 | 4.37 | 1.8 | 3.83 | 3.21 | 15.5 | 1.91 | 3.88 | 3.2 | 11.3 | 0.638 | 3.36 |
| COc1ccc(/C=C/c2n[nH]c3ccc(N4CCOC4=O)cc23)cc1 | 1.14 | 5.32 | 3.43 | > 100 | 3.23 | 9.59 | 3.2 | 38.6 | 2.99 | 40.2 | 3.01 | 8.56 |
| Nc1ccc(/C=N/Nc2ccnc3c(N)cccc23)c2cccnc12 |  |  | 1.68 | 3.13 | 2.04 | 4.62 | 1.64 | 3.16 | 1.93 | 4.41 | 2.27 | 5.02 |
| NCCNC(=S)S |  | > 100 |  | > 100 |  | 43 |  | > 100 |  | > 100 |  | > 100 |
| C[C@@]12CCC(=O)C=C1CC[C@H]1C2=CC[C@]2(C)C1CC[C@@]2(C)O (some centres not stated) |  | > 100 |  | > 100 |  | > 100 |  | > 100 |  | > 100 |  | > 100 |
| C=C1C(=O)O[C@H]2[C@H]1CC/C(COC(=O)NCc1c[nH]c3ccc(Cl)cc13)=C\CC[C@@]1(C)O[C@@H]21 | 1.18 | 2.61 | 1.2 | 2.65 | 2.45 | 6.82 | 1.12 | 2.48 | 2.84 | 11.3 |  |  |
| Cc1[nH]c(=O)[nH]c(=O)c1CO | > 100 | > 100 | > 100 | > 100 | > 100 | > 100 | > 100 | > 100 | > 100 | > 100 | > 100 | > 100 |
| COc1ccc([N+](=O)[O-])c(S(=O)(=O)c2ccc(Cl)cc2)n1 | 2.75 | 8.97 | 9.63 | 21.3 | 13 | 51.1 | 1.75 | 3.66 | 4.93 | > 100 | 2.12 | 5.41 |
| C[C@H]1[C@H](C)CC[C@]2(C(=O)O)CC[C@]3(C)C(=CC[C@@H]4[C@@]5(C)C/C(=C/c6ccco6)C(=O)C(C)(C)[C@@H]5CC[C@]43C)[C@H]12 | 4.76 | 18.9 | 6.41 | 30.9 | 11.6 | > 100 | 6.58 | 20.4 | 3.84 | 16.1 | 3.79 | 33.8 |
